Test results as given in ChEMBL document CHEMBL1201862, “PubChem BioAssay data set” (2004).
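Each compound was tested at five concentrations against cells in 96-well plates for 48 hours. GI50 marks 50% less growth.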 Active and inactive are the calls of the source. No stated cut-off is given here; in the data, active = GI50 up to about 1.1 µM and inactive = higher.

What was measured:
Assay in all cases: NCI tumour cell line growth inhibition, 48 h
NCI-H522 = test system: NCI-H522
TK-10 = test system: TK-10
SK-MEL-2 = test system: SK-MEL-2
UACC-257 = test system: UACC-257
HCT-15 = test system: HCT-15
HL-60 = test system: HL-60
SW-620 = test system: SW-620
NCI-H23 = test system: NCI-H23
SNB-19 = test system: SNB-19
T47D = test system: T47D
U-251 = test system: U-251
BT-549 = test system: BT-549
SF-539 = test system: SF-539
CCRF-CEM = test system: CCRF-CEM
NCI-H460 = test system: NCI-H460
HCC 2998 = test system: HCC 2998
HOP-62 = test system: HOP-62
UACC-62 = test system: UACC-62
MDA-MB-231 = test system: MDA-MB-231
SNB-75 = test system: SNB-75
EKVX = test system: EKVX
HOP-92 = test system: HOP-92
786-0 = test system: 786-0
IGROV-1 = test system: IGROV-1
OVCAR-3 = test system: OVCAR-3
SF-295 = test system: SF-295
MCF7 = test system: MCF7
M14 = test system: M14
OVCAR-5 = test system: OVCAR-5
SF-268 = test system: SF-268
MDA-N = test system: MDA-N
A549 = test system: A549
SK-OV-3 = test system: SK-OV-3
SR = test system: SR
KM12 = test system: KM12
RPMI-8226 = test system: RPMI-8226
DU-145 = test system: DU-145
SK-MEL-28 = test system: SK-MEL-28
ACHN = test system: ACHN
HT-29 = test system: HT-29
OVCAR-8 = test system: OVCAR-8
MOLT-4 = test system: MOLT-4
K562 = test system: K562
HCT-116 = test system: HCT-116
UO-31 = test system: UO-31
NCI-H226 = test system: NCI-H226
A498 = test system: A498
Malme-3M = test system: Malme-3M
RXF 393 = test system: RXF 393
CAKI-1 = test system: CAKI-1
MDA-MB-435 = test system: MDA-MB-435
SN12C = test system: SN12C
COLO 205 = test system: COLO 205
SK-MEL-5 = test system: SK-MEL-5
PC-3 = test system: PC-3
LOX IMVI = test system: LOX IMVI
Hs-578T = test system: Hs-578T
NCI/ADR-RES = test system: NCI/ADR-RES
OVCAR-4 = test system: OVCAR-4

## N=C(N)SCc1ccc2c(c1)Sc1ccccc1O2
NCI-H522
  GI50: 1.44 µM (inactive)
TK-10
  GI50: 5.11 µM (inactive)
SK-MEL-2
  GI50: 5.12 µM (inactive)
UACC-257
  GI50: 5.82 µM (inactive)
HCT-15
  GI50: 3.33 µM
HL-60
  GI50: 4.57 µM (inactive)
SW-620
  GI50: 5.85 µM (inactive)
NCI-H23
  GI50: 6.5 µM (inactive)
SNB-19
  GI50: 11.4 µM (inactive)
T47D
  GI50: 8.07 µM (inactive)
U-251
  GI50: 18.4 µM (inactive)
BT-549
  GI50: 3.62 µM (inactive)
SF-539
  GI50: 2.07 µM (inactive)
CCRF-CEM
  GI50: 6.78 µM (inactive)
NCI-H460
  GI50: 6.79 µM (inactive)
HCC 2998
  GI50: 2.35 µM (inactive)
HOP-62
  GI50: 14.1 µM (inactive)
UACC-62
  GI50: 4.62 µM (inactive)
MDA-MB-231
  GI50: 10.3 µM (inactive)
SNB-75
  GI50: 5.65 µM (inactive)
EKVX
  GI50: 11.6 µM (inactive)
HOP-92
  GI50: 6.31 µM (inactive)
786-0
  GI50: 4.76 µM (inactive)
IGROV-1
  GI50: 3.34 µM (inactive)
OVCAR-3
  GI50: 4.69 µM (inactive)
SF-295
  GI50: 10.5 µM (inactive)
MCF7
  GI50: 4.53 µM (inactive)
M14
  GI50: 2.16 µM (inactive)
OVCAR-5
  GI50: 11.6 µM (inactive)
SF-268
  GI50: 13.1 µM (inactive)
MDA-N
  GI50: 3.93 µM (inactive)
A549
  GI50: 6.73 µM (inactive)
SK-OV-3
  GI50: 12.9 µM (inactive)
SR
  GI50: 5.78 µM (inactive)
KM12
  GI50: 5.32 µM (inactive)
RPMI-8226
  GI50: 8.05 µM (inactive)
DU-145
  GI50: 8.69 µM (inactive)
SK-MEL-28
  GI50: 13.6 µM (inactive)
ACHN
  GI50: 4.47 µM (inactive)
HT-29
  GI50: 2.9 µM (inactive)
OVCAR-8
  GI50: 10.6 µM (inactive)
MOLT-4
  GI50: 7.71 µM (inactive)
K562
  GI50: 6.03 µM (inactive)
HCT-116
  GI50: 5.86 µM (inactive)
UO-31
  GI50: 3.37 µM (inactive)
NCI-H226
  GI50: 11.2 µM (inactive)
A498
  GI50: 15.6 µM (inactive)
Malme-3M
  GI50: 11.1 µM (inactive)
RXF 393
  GI50: 3.61 µM (inactive)
CAKI-1
  GI50: 6.46 µM (inactive)
MDA-MB-435
  GI50: 3.78 µM (inactive)
SN12C
  GI50: 8.95 µM (inactive)
COLO 205
  GI50: 2.36 µM (inactive)
SK-MEL-5
  GI50: 1.57 µM (inactive)
PC-3
  GI50: 4.74 µM (inactive)
LOX IMVI
  GI50: 6 µM (inactive)
Hs-578T
  GI50: 4.56 µM (inactive)
NCI/ADR-RES
  GI50: 6.65 µM (inactive)
OVCAR-4
  GI50: 6.87 µM (inactive)

## O=C1C=C(C2=C(C3=CC(=O)c4ccccc4C3=O)C(=O)c3ccccc3C2=O)C(=O)c2ccccc21
NCI-H522
  GI50: 2.17 µM (inactive)
TK-10
  GI50: 6.21 µM (inactive)
SK-MEL-2
  GI50: 17.2 µM (inactive)
UACC-257
  GI50: 10.5 µM (inactive)
HCT-15
  GI50: 9.89 µM
HL-60
  GI50: 1.21 µM (inactive)
SW-620
  GI50: 3.79 µM (inactive)
NCI-H23
  GI50: 7.43 µM (inactive)
SNB-19
  GI50: 14.4 µM (inactive)
T47D
  GI50: 6.19 µM (inactive)
U-251
  GI50: 4.48 µM (inactive)
BT-549
  GI50: 14.6 µM (inactive)
SF-539
  GI50: 8.28 µM (inactive)
CCRF-CEM
  GI50: 0.286 µM (active)
NCI-H460
  GI50: 14.8 µM (inactive)
HCC 2998
  GI50: 16.9 µM (inactive)
HOP-62
  GI50: 14.8 µM (inactive)
UACC-62
  GI50: 15.1 µM (inactive)
MDA-MB-231
  GI50: 3.07 µM (inactive)
SNB-75
  GI50: 9.46 µM (inactive)
EKVX
  GI50: 11.1 µM (inactive)
HOP-92
  GI50: 2.45 µM (inactive)
786-0
  GI50: 2.9 µM (inactive)
IGROV-1
  GI50: 2.15 µM (inactive)
OVCAR-3
  GI50: 2.84 µM (inactive)
SF-295
  GI50: 16.1 µM (inactive)
MCF7
  GI50: 7.69 µM (inactive)
M14
  GI50: 8.87 µM (inactive)
OVCAR-5
  GI50: 11.8 µM (inactive)
SF-268
  GI50: 12.6 µM (inactive)
MDA-N
  GI50: 2.25 µM (inactive)
A549
  GI50: 9.48 µM (inactive)
SK-OV-3
  GI50: 20.9 µM (inactive)
SR
  GI50: 31.1 µM (inactive)
KM12
  GI50: 7 µM (inactive)
RPMI-8226
  GI50: 3.48 µM (inactive)
DU-145
  GI50: 5.18 µM (inactive)
SK-MEL-28
  GI50: 14 µM (inactive)
ACHN
  GI50: 17.9 µM (inactive)
HT-29
  GI50: 3.12 µM (inactive)
OVCAR-8
  GI50: 5.62 µM (inactive)
MOLT-4
  GI50: 0.389 µM (active)
K562
  GI50: 2.67 µM (inactive)
HCT-116
  GI50: 4.84 µM (inactive)
UO-31
  GI50: 2.85 µM (inactive)
NCI-H226
  GI50: 13 µM (inactive)
A498
  GI50: 16.9 µM (inactive)
Malme-3M
  GI50: 2.11 µM (inactive)
RXF 393
  GI50: 1.69 µM (inactive)
CAKI-1
  GI50: 4.7 µM (inactive)
MDA-MB-435
  GI50: 2.47 µM (inactive)
SN12C
  GI50: 7.26 µM (inactive)
COLO 205
  GI50: 3.94 µM (inactive)
SK-MEL-5
  GI50: 9.4 µM (inactive)
PC-3
  GI50: 10.4 µM (inactive)
LOX IMVI
  GI50: 3.36 µM (inactive)
Hs-578T
  GI50: 11.5 µM (inactive)
NCI/ADR-RES
  GI50: 11.1 µM (inactive)
OVCAR-4
  GI50: 6.03 µM (inactive)

## c1ccc(NNN2NC(c3ccccc3)C2c2ccccc2)cc1 (stereo not given)
NCI-H522
  GI50: 71.9 µM (inactive)
TK-10
  GI50: > 100 µM (inactive)
SK-MEL-2
  GI50: > 100 µM (inactive)
UACC-257
  GI50: 87.9 µM (inactive)
HCT-15
  GI50: > 100 µM
HL-60
  GI50: 49.5 µM (inactive)
SW-620
  GI50: > 100 µM (inactive)
NCI-H23
  GI50: 92.3 µM (inactive)
SNB-19
  GI50: > 100 µM (inactive)
T47D
  GI50: > 100 µM (inactive)
U-251
  GI50: > 100 µM (inactive)
BT-549
  GI50: > 100 µM (inactive)
SF-539
  GI50: > 100 µM (inactive)
CCRF-CEM
  GI50: 59.6 µM (inactive)
NCI-H460
  GI50: 72.4 µM (inactive)
HCC 2998
  GI50: > 100 µM (inactive)
UACC-62
  GI50: > 100 µM (inactive)
MDA-MB-231
  GI50: > 100 µM (inactive)
SNB-75
  GI50: > 100 µM (inactive)
EKVX
  GI50: > 100 µM (inactive)
HOP-92
  GI50: > 100 µM (inactive)
786-0
  GI50: > 100 µM (inactive)
OVCAR-3
  GI50: > 100 µM (inactive)
SF-295
  GI50: > 100 µM (inactive)
MCF7
  GI50: 98.2 µM (inactive)
M14
  GI50: > 100 µM (inactive)
OVCAR-5
  GI50: > 100 µM (inactive)
SF-268
  GI50: > 100 µM (inactive)
MDA-N
  GI50: > 100 µM (inactive)
A549
  GI50: 60 µM (inactive)
SK-OV-3
  GI50: > 100 µM (inactive)
SR
  GI50: > 100 µM (inactive)
KM12
  GI50: > 100 µM (inactive)
RPMI-8226
  GI50: > 100 µM (inactive)
DU-145
  GI50: > 100 µM (inactive)
SK-MEL-28
  GI50: > 100 µM (inactive)
ACHN
  GI50: > 100 µM (inactive)
HT-29
  GI50: > 100 µM (inactive)
OVCAR-8
  GI50: > 100 µM (inactive)
MOLT-4
  GI50: 55 µM (inactive)
K562
  GI50: 91.8 µM (inactive)
HCT-116
  GI50: 79.4 µM (inactive)
UO-31
  GI50: 36.6 µM (inactive)
NCI-H226
  GI50: > 100 µM (inactive)
A498
  GI50: > 100 µM (inactive)
Malme-3M
  GI50: 28.9 µM (inactive)
RXF 393
  GI50: 24.3 µM (inactive)
CAKI-1
  GI50: > 100 µM (inactive)
MDA-MB-435
  GI50: > 100 µM (inactive)
SN12C
  GI50: > 100 µM (inactive)
COLO 205
  GI50: > 100 µM (inactive)
SK-MEL-5
  GI50: > 100 µM (inactive)
PC-3
  GI50: > 100 µM (inactive)
LOX IMVI
  GI50: > 100 µM (inactive)
Hs-578T
  GI50: > 100 µM (inactive)
NCI/ADR-RES
  GI50: 97.3 µM (inactive)
OVCAR-4
  GI50: 86.1 µM (inactive)
